Laboratory results taken from US20260034170A1, “NITRIC OXIDE TOPICAL APPLICATION APPARATUS AND METHODS” (NOxy Health Products, Inc., priority 2016, published 2026).

Test system: bacteria on a surface, such as a person's skin
Test: dose of nitric oxide required to kill bacteria on a surface

[N]=O [nitric oxide]
dose required to kill bacteria on a surface: ≥ 320 ppm
